How the values were obtained:
[1] = test system: BRD4-knockout (KO) J-Lat cells; test: RT-qPCR of differentially expressed genes, BRD4-KO J-Lat cells; type: cell-based, human; settings: same treatments
Experimental: (§1) To validate the RNA-Seq results, RT-qPCR analysis was performed on a subset of differentially expressed genes (DEGs) (Fig 3E). Eight representative DEGs were selected based on statistical significance (adjusted p values) and their involvement in key pathways identified by GSEA, including lipid metabolism/cholesterol biosynthesis (HMGCS1, SQLE, DHCR7) and cytokine signaling (ITK and DUSP8). Relative gene expression levels were normalized to the housekeeping gene GAPDH. […] As an additional control, RT-qPCR was also performed on RNA isolated from BRD4-knockout (KO) J-Lat cells that received the same treatments. The generation and characterization of BRD4-KO J-Lat cells were described previously.
(§2) RT-qPCR was performed as previously reported.

BRD4 BD1 = test: In vitro binding affinity (TR-FRET), BRD4 BD1; parameters: species or system human; settings: from IC50 BD1 and BD2
[2] = In vivo toxicity study in ICR mice; parameters: key to Detail clinical observation during administration period (symptom number): 01. normal; 02. Cavity to observe; 03. Discolored skin; 04. Salivation; 05. Emesis; 06. Lacrimation; 07. ptosis; 08.Decreased respira tion; 09. Increased respiration; 10. anhelation; 11. Ataxia; 12. Loose stools; 13. Limb’s tremor; 14. Ey e; 15.Weakness; 16. Hyperreactivity; 17. Emaciation; 18. Whole body touch; 19. Cough; 20. At the injection site; 21. Alopecia genitalized; 22. convulsion; 23. Corna; 24. Death; key to Necropsy macroscopic (all organs examined): –: normal-; slight +; midrange ++; severe ++++; settings: for Detail clinical observation during administration period (symptom number): all 10 animals (5 F, 5 M), Day 1 (twice) to Day 7; for Necropsy macroscopic (all organs examined): all organs listed
Experimental: The acute toxicity studies were performed in both male and female ICR mice. The mice were divided into 3 groups (each group, n = 10, 5 males and 5 females). Group 1 was the vehicle group without ZL0580 treatment (po, 20% DMA + 20% Solutol HS15 + 60% HP-β-CD (20%, w/v)). Group 2, and group 3 mice were orally administrated with ZL0580 at doses of 100 mg/kg and 300 mg/kg [in 20% Dimethyl Acetamide (DMA) + 20% Solutol HS15 + 60% HP-β-CD (20%, w/v)], respectively. The body weights of all mice were weighed on day 1, 3, and 7 after treatments. The mean body weights of all mice in each group were calculated, and the standard curves were generated with the mean body weights of each group mice at different recorded time points. The food consumption masses of each group mice were recorded on day 1, 2, 3, 4, and 5 after treatments. The mean food consumption of all mice in each group was calculated, and the standard curves were generated with the mean food consumption of each group at different recorded time points.

HIV-1 JR-CSF = test: Cell-associated HIV DNA in blood cells of Hu-mice; type: in vivo, CD34+ Hu-NSG mice (Hu-mice); settings: qPCR, per 10^7 PB cells
Text: To assess whether ZL0580 or ART affects HIV DNA levels, we quantified cell-associated HIV DNA in the peripheral blood of Hu-mice after treatments. Blood cells collected at weeks 7, 11 and 13 were subjected to DNA extraction and quantification of HIV DNA by qPCR. […] By week 13, HIV DNA levels also remained similar across all groups (Fig 7C).
Mice were 16-week-old at the initiation of the experiments. All mice received human CD34 + stem cells of a single donor and human immune cell reconstitution was confirmed for all mice. A total of 12 Hu-mice were initially included in the study with each tagged and assigned with a unique ID. […] Blood/plasma viral loads were monitored and quantified weekly by a single-step RT-qPCR until systemic HIV infection was established. […] Plasma samples were collected from mice either weekly or biweekly for quantification of viral loads (RNA copies). Blood cells were also collected at weeks 7 and 13 for quantification of cell-associated HIV DNA in blood. Mouse weights were monitored after treatment.
Quantification of cell-associated HIV DNA in blood cells was performed by qPCR as previously described with modifications. Blood cells were counted and subjected to DNA extraction using the Qiagen QIAamp DNA Blood Mini Kit (QIAGEN). qPCR primers and probe: Forward: 5′-[…]-3′, Reverse: 5′-[…]-3′, Probe: 5’-/5HEX/[…]/ZEN/GCC […]/3IABkFQ. […]

[3] = Body weight / tolerability in HIV-infected Hu-mice; type: in vivo, CD34+ Hu-NSG mice (Hu-mice)
Text: To assess general health of the mice and potential protective effects of the treatments, body weights of Hu-mice were closely monitored. […] There was a slight reduction in body weights of Hu-mice in the EV group following HIV infection. However, no statistically significant difference was detected as compared to the three treatment groups (Fig 6E).
Mice were 16-week-old at the initiation of the experiments. All mice received human CD34 + stem cells of a single donor and human immune cell reconstitution was confirmed for all mice. A total of 12 Hu-mice were initially included in the study with each tagged and assigned with a unique ID. At week 0, all Hu-mice were intravenously (IV) infected with HIV-1 JR-CSF at a single dose of 10ng HIV p24 equivalent virus per animal. Blood/plasma viral loads were monitored and quantified weekly by a single-step RT-qPCR until systemic HIV infection was established. […] At week 3, the remaining 11 Hu-mice were randomized into four groups for subsequent treatments: Empty Vehicle (EV) (n = 2), ART (n = 3), ZL0580 (n = 3), and ART + ZL0580 (n = 3). […] Plasma samples were collected from mice either weekly or biweekly for quantification of viral loads (RNA copies). Blood cells were also collected at weeks 7 and 13 for quantification of cell-associated HIV DNA in blood. Mouse weights were monitored after treatment.

BRD4 BD2 = test system: BRD4 BD2; parameters: method as in PMID 31329163; settings: in vitro binding affinity; cited from earlier work
[4] = test system: WT J-Lat cells (Clone […]); test: RT-qPCR validation of differentially expressed genes, WT J-Lat cells; type: cell-based, human; settings: 5 μM, 24 h, normalized to GAPDH
Experimental: as §1, §2

[5] = ICR mice, 100 mg/kg or 300 mg/kg daily for 7 days
[6] = ICR mice, 100 mg/kg or 300 mg/kg, end of the study

What does the source list for O=C(Nc1ccc(C(F)(F)F)cc1)Nc1ccc(S(=O)(=O)N2CCC[C@H]2C(=O)Nc2ccccc2)cc1 [ZL0580]?
Contrasting regulatory effects on representative DEGs in the absence of BRD4 [1]: largely abolished; Selectivity (BRD4 BD1 vs BD2) (BRD4 BD1): about 7 fold; Detail clinical observation during administration period (symptom number) ([2]; Group 2, 100 mg/kg PO): 01; Necropsy macroscopic (all organs examined) ([2]; Group 2, 100 mg/kg PO, all 10 animals): –; Detail clinical observation during administration period (symptom number) ([2]; Group 3, 300 mg/kg PO): 01; Necropsy macroscopic (all organs examined) ([2]; Group 3, 300 mg/kg PO, females 801-805 shown): –; Tolerability in vivo ([2]; ICR mice, 100 mg/kg or 300 mg/kg PO daily for 7 days): well tolerated; Changes in body weights [2, 5]: little to no changes; Changes in food consumption [2, 5]: little to no changes; Necropsy and gross pathological examinations [2, 6]: no abnormalities; Serum biochemistry [2, 6]: no abnormalities; Clinical signs of toxicity ([2]; ICR mice, 100 mg/kg or 300 mg/kg, throughout the study): No clinical signs of toxicity were observed; HIV DNA copies in peripheral blood cells at week 7, among groups incl. EV control (HIV-1 JR-CSF): no significant differences; Tolerability in Hu-mice ([3]; daily intraperitoneal administration over the course of treatment): well tolerated; Body weights of Hu-mice ([3]; daily intraperitoneal administration, throughout the study): maintained stable body weights; IC50 (BRD4 BD2): 1070 nM; Expression of HMGCS1, SQLE, DHCR7, ASS1, ITK, DUSP8 relative to NC [4]: upregulated; Expression of KLF10 and WDR52 relative to NC [4]: downregulated

From PMC12880750, “Mechanistic insights and in vivo HIV suppression by the BRD4-targeting small molecule ZL0580” (PLOS Pathogens, 2026)
